{
  "source": "PubChem BioAssay (NCI)",
  "assay_in_all_cases": "NCI anticancer screen, dose series, 48 h",
  "key": {"RXF 393 renal": {"system": "RXF 393 renal"}, "MDA-MB-231 breast": {"system": "MDA-MB-231 breast"}, "SF-295 CNS": {"system": "SF-295 CNS"}, "A549 NSCLC": {"system": "A549 NSCLC"}, "U251 CNS": {"system": "U251 CNS"}, "NCI-H522 lung": {"system": "NCI-H522 lung"}, "UO-31 renal": {"system": "UO-31 renal"}, "CAKI-1 renal": {"system": "CAKI-1 renal"}, "LOX IMVI melanoma": {"system": "LOX IMVI melanoma"}, "NCI/ADR-RES ovarian": {"system": "NCI/ADR-RES ovarian"}, "MDA-MB-435": {"system": "MDA-MB-435"}},
  "note": "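48-hour exposure; five concentrations; linearly interpolated endpoints. TGI: concentration producing complete growth inhibition.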",
  "data": [
    {"smiles": "CN(C)CCCN=c1c2ccccc2n(C)c2[nH]c(=O)n(C)c(=O)c12", "values": [
      {"measurement": "TGI", "setting": "RXF 393 renal", "value": 30.1, "unit": "µM"},
      {"measurement": "TGI", "setting": "MDA-MB-231 breast", "value": 28, "unit": "µM"},
      {"measurement": "TGI", "setting": "SF-295 CNS", "value": 32.5, "unit": "µM"},
      {"measurement": "TGI", "setting": "A549 NSCLC", "value": "> 100", "unit": "µM"},
      {"measurement": "TGI", "setting": "U251 CNS", "value": 15, "unit": "µM"},
      {"measurement": "TGI", "setting": "NCI-H522 lung", "value": 9.34, "unit": "µM"},
      {"measurement": "TGI", "setting": "UO-31 renal", "value": 27.2, "unit": "µM"},
      {"measurement": "TGI", "setting": "CAKI-1 renal", "value": "> 100", "unit": "µM"},
      {"measurement": "TGI", "setting": "LOX IMVI melanoma", "value": 39.1, "unit": "µM"},
      {"measurement": "TGI", "setting": "NCI/ADR-RES ovarian", "value": "> 100", "unit": "µM"},
      {"measurement": "TGI", "setting": "MDA-MB-435", "value": 16.8, "unit": "µM"}
    ]},
    {"smiles": "CC(=O)CC12NC(=O)N(C)N=C1N(C)C(=O)N(C)C2=O", "note": "(stereo not given)", "values": [
      {"measurement": "TGI", "setting": "RXF 393 renal", "value": "> 100", "unit": "µM"},
      {"measurement": "TGI", "setting": "MDA-MB-231 breast", "value": "> 100", "unit": "µM"},
      {"measurement": "TGI", "setting": "SF-295 CNS", "value": "> 100", "unit": "µM"},
      {"measurement": "TGI", "setting": "A549 NSCLC", "value": "> 100", "unit": "µM"},
      {"measurement": "TGI", "setting": "U251 CNS", "value": "> 100", "unit": "µM"},
      {"measurement": "TGI", "setting": "NCI-H522 lung", "value": "> 100", "unit": "µM"},
      {"measurement": "TGI", "setting": "UO-31 renal", "value": "> 100", "unit": "µM"},
      {"measurement": "TGI", "setting": "CAKI-1 renal", "value": "> 100", "unit": "µM"},
      {"measurement": "TGI", "setting": "LOX IMVI melanoma", "value": 40.8, "unit": "µM"},
      {"measurement": "TGI", "setting": "NCI/ADR-RES ovarian", "value": "> 100", "unit": "µM"},
      {"measurement": "TGI", "setting": "MDA-MB-435", "value": 31, "unit": "µM"}
    ]},
    {"smiles": "CC(=O)OC12OC(C)(C3C(=O)N(c4ccccc4)C(=O)C31)N(c1ccccc1)C2=O", "note": "(stereo not given)", "values": [
      {"measurement": "TGI", "setting": "RXF 393 renal", "value": "> 100", "unit": "µM"},
      {"measurement": "TGI", "setting": "MDA-MB-231 breast", "value": "> 100", "unit": "µM"},
      {"measurement": "TGI", "setting": "SF-295 CNS", "value": "> 100", "unit": "µM"},
      {"measurement": "TGI", "setting": "A549 NSCLC", "value": "> 100", "unit": "µM"},
      {"measurement": "TGI", "setting": "U251 CNS", "value": "> 100", "unit": "µM"},
      {"measurement": "TGI", "setting": "NCI-H522 lung", "value": "> 100", "unit": "µM"},
      {"measurement": "TGI", "setting": "UO-31 renal", "value": "> 100", "unit": "µM"},
      {"measurement": "TGI", "setting": "CAKI-1 renal", "value": "> 100", "unit": "µM"},
      {"measurement": "TGI", "setting": "LOX IMVI melanoma", "value": "> 100", "unit": "µM"},
      {"measurement": "TGI", "setting": "NCI/ADR-RES ovarian", "value": "> 100", "unit": "µM"},
      {"measurement": "TGI", "setting": "MDA-MB-435", "value": "> 100", "unit": "µM"}
    ]},
    {"smiles": "O=C1C(c2c(O)[nH]c3ccc(I)cc23)=Nc2ccccc21", "values": [
      {"measurement": "TGI", "setting": "RXF 393 renal", "value": 34.6, "unit": "µM"},
      {"measurement": "TGI", "setting": "MDA-MB-231 breast", "value": 8.47, "unit": "µM"},
      {"measurement": "TGI", "setting": "SF-295 CNS", "value": "> 64.4", "unit": "µM"},
      {"measurement": "TGI", "setting": "A549 NSCLC", "value": 20.3, "unit": "µM"},
      {"measurement": "TGI", "setting": "U251 CNS", "value": 7.36, "unit": "µM"},
      {"measurement": "TGI", "setting": "NCI-H522 lung", "value": "> 58.9", "unit": "µM"},
      {"measurement": "TGI", "setting": "UO-31 renal", "value": 14.4, "unit": "µM"},
      {"measurement": "TGI", "setting": "CAKI-1 renal", "value": "> 96.5", "unit": "µM"},
      {"measurement": "TGI", "setting": "LOX IMVI melanoma", "value": 34.4, "unit": "µM"},
      {"measurement": "TGI", "setting": "NCI/ADR-RES ovarian", "value": "> 100", "unit": "µM"},
      {"measurement": "TGI", "setting": "MDA-MB-435", "value": "> 100", "unit": "µM"}
    ]},
    {"smiles": "NCCN(CCN)/[N+]([O-])=N/O", "values": [
      {"measurement": "TGI", "setting": "RXF 393 renal", "value": "> 100", "unit": "µM"},
      {"measurement": "TGI", "setting": "MDA-MB-231 breast", "value": "> 100", "unit": "µM"},
      {"measurement": "TGI", "setting": "SF-295 CNS", "value": "> 100", "unit": "µM"},
      {"measurement": "TGI", "setting": "A549 NSCLC", "value": "> 100", "unit": "µM"},
      {"measurement": "TGI", "setting": "U251 CNS", "value": "> 100", "unit": "µM"},
      {"measurement": "TGI", "setting": "NCI-H522 lung", "value": "> 100", "unit": "µM"},
      {"measurement": "TGI", "setting": "UO-31 renal", "value": "> 100", "unit": "µM"},
      {"measurement": "TGI", "setting": "CAKI-1 renal", "value": "> 100", "unit": "µM"},
      {"measurement": "TGI", "setting": "LOX IMVI melanoma", "value": "> 100", "unit": "µM"},
      {"measurement": "TGI", "setting": "NCI/ADR-RES ovarian", "value": "> 100", "unit": "µM"},
      {"measurement": "TGI", "setting": "MDA-MB-435", "value": "> 100", "unit": "µM"}
    ]}
  ]
}
